Laboratory results: patent publication US20220146526A1, “METHOD FOR EVALUATING SAMPLE, ANALYSIS METHOD, METHOD FOR DETECTING DEGRADED SAMPLE, MARKER FOR DETECTING DEGRADED BLOOD PLASMA SAMPLE, AND MARKER FOR DETECTING DEGRADED SERUM SAMPLE” (SHIMADZU CORPORATION, priority 2019, published 2022)
Several values for one entry are separate records, joined by “and”; a condition that tells them apart may be missing. Equal entries are not always repeated.

Key:
Type in all cases: physicochemical, human
[1] = GC/MS of serum sample: number of times of freezing and thawing (Table I); set-up: key to Rate of increase or decrease / Rate of increase or decrease (first value, increase): detection intensity relative to 2 freeze-thaw cycles = 1; conditions: for Rate of increase or decrease: detection intensity relative to 1 at 2 times; for Number of times when compound is affected: detection intensity changed by 30% or more vs 2 times of freezing and thawing
Procedure: (§1) After standing, the blood sample was subjected to centrifugation under a condition of room temperature, 3500 rpm, and 5 minutes. […] After centrifugation, the blood-collecting vessel was left to stand at room temperature, and the serum was isolated during this time. Here, in order to investigate how the detection intensity of molecules contained in the sample was affected in cases where the time during which the blood-collecting vessel was left at room temperature was set to 1 hour and 6 hours as compared to that in a case where the time was set to 30 minutes, preparations were performed under the respective conditions of 30 minutes, 1 hour, and 6 hours. The obtained serum sample was frozen and stored. Here, in order to investigate how the detection intensity of molecules contained in the sample was affected in cases where freezing and thawing was performed 4 times, 6 times, and 10 times after freezing as compared to that in a case where freezing and thawing was performed 2 times after freezing, freezing and thawing was performed under the respective conditions of 2, 4, 6, and 10 times.
(§2) Frozen blood plasma samples and serum samples were subjected to GC/MS or LC/MS. In GC/MS, the blood plasma samples and serum samples were subjected to methoxymation and trimethylsilylation and then introduced to GC-MS.
(§3) GC/MS was conducted using GCMS·TQ8040 (Shimadzu Corporation) that was a GC·MS equipped with AOC·20i (Shimadzu Corporation) as an autosampler.
(§4) Column: BPX5 (inner diameter of 0.25 mm, length of 30 m, and film thickness of 0.25 μm) (SGE)
(§5) Column temperature: maintained at 60° C. for 2 minutes, then raised at 15° C./min, and maintained at 330° C. for 3 minutes.
(§6) Inlet temperature: 250° C.
(§7) Carrier gas control mode: constant linear velocity of 39.0 cm/sec
(§8) Sample introduction method: split (split ratio of 30:1) Injection volume: 1 μL
(§9) Ionization method: electron ionization
(§10) Ionization current: 60 μA
(§11) Interface temperature: 280° C.
(§12) Ion source temperature: 200° C.
(§13) Mode: multiple reaction monitoring (MRM)
The rate of increase or decrease in Table I is the value of detection intensity relative to 1 that is the detection intensity in a case where the number of times of freezing and thawing is set to 2 times.

[2] = GC/MS of serum sample: time from blood collection to centrifugation (Table G); conditions: for Rate of increase or decrease: detection intensity relative to 1 at 15 minutes; for Rate of increase or decrease / Increase or decrease: blood collection to centrifugation; for Increase or decrease: detection intensity
Procedure: as §1, §2, §3, §4, §5, §6, §7, §8, §9, §10, §11, §12, §13
The rate of increase or decrease in Table G is the value of detection intensity relative to 1 that is the detection intensity in a case where the time from blood collection to centrifugation is set to 15 minutes.

[3] = GC/MS of serum sample: time from centrifugation to isolation (Table H); set-up: key to Rate of increase or decrease / Rate of increase or decrease (first value, increase): detection intensity relative to 1 at 30 min centrifugation-to-isolation; conditions: for Rate of increase or decrease: detection intensity relative to 1 at 30 minutes; for Increase or decrease: detection intensity
Procedure: as §1, §2, §3, §4, §5, §6, §7, §8, §9, §10, §11, §12, §13
The rate of increase or decrease in Table H is the value of detection intensity relative to 1 that is the detection intensity in a case where the time from centrifugation to isolation is set to 30 minutes.

[4] = 10 times of freezing and thawing
[5] = serum sample, GC/MS, detection intensity vs 2 times of freezing and thawing
[6] = serum, GC/MS, freezing and thawing 10 times
[7] = detection intensity, serum, GC/MS, freezing and thawing 10 times vs 2 times
[8] = serum, GC/MS, freezing and thawing 4 times
[9] = detection intensity, serum, GC/MS, freezing and thawing 4 times vs 2 times
[10] = serum, GC/MS, freezing and thawing 6 times
[11] = detection intensity, serum, GC/MS, freezing and thawing 6 times vs 2 times

Rate of increase or decrease ([2]; after 4 hours)	Increase or decrease ([2]; after 4 hours vs 15 minutes)	Rate of increase or decrease ([3]; after 1 hour)	Increase or decrease ([3]; after 1 hour vs 30 minutes)	Rate of increase or decrease ([3]; after 6 hours)	Increase or decrease ([3]; after 6 hours vs 30 minutes)	Rate of increase or decrease [1, 8]	Increase or decrease [1, 9]	Rate of increase or decrease ([2]; after 8 hours)	Increase or decrease ([2]; after 8 hours vs 15 minutes)	SMILES	other results
0.58	Decrease	–	–	1.88	Increase	–	–	–	–	O=C(O)C(=O)CO [3-Hydroxypyruvic acid]	Rate of increase or decrease [1, 6]: 4.59; Increase or decrease [1, 7]: Increase
0.58 and 0.55	Decrease	1.31	Increase	–	–	0.45 and 0.46	Decrease	–	–	O=C(CO)[C@H](O)CO [Erythrulose]	–
–	–	–	Different from individual	–	–	1.33	Increase	0.68	Decrease	O=C1O[C@H](CO)[C@@H](O)[C@H]1O [Ribonic acid lactone]	Rate of increase or decrease (second value, decrease) ([3]; different from individual to individual, individuals with decrease, relative to 1 at 30 minutes, after 1 hour): 0.57; Rate of increase or decrease (first value, increase) ([3]; different from individual to individual, individuals with increase, relative to 1 at 30 minutes, after 1 hour): 1.71
–	–	–	–	1.39	Increase	1.39	Increase	1.46	Increase	CC(=O)CC(=O)O [Acetoacetic acid]	–
2.01	Increase	0.33	Decrease	–	–	–	–	–	–	CC(O)(CC(=O)O)C(=O)O (centres unmarked) [Citramalic acid]	Rate of increase or decrease [1, 4]: 0.53; Number of times when compound is affected ([1]; serum sample, GC/MS): 10 times; Increase or decrease [1, 5]: Decrease
–	–	2.32	Increase	–	–	–	–	1.44	Increase	OC[C@@H](O)[C@@H](O)[C@@H](O)CO [Ribitol]	–
–	–	–	–	1.45	Increase	0.56	Decrease	0.55	Decrease	O=C(O)[C@@H](O)[C@H](O)CO [Threonic acid]	–
–	Different from individual	2.50	Increase	–	–	–	–	–	–	O=C(O)CCCCC(=O)O [Adipic acid]	Rate of increase or decrease [1, 6]: 2.14; Increase or decrease [1, 7]: Increase; Rate of increase or decrease (second value, decrease) ([2]; different from individual to individual, individuals with decrease, relative to 1 at 15 minutes, collection to centrifugation, after 4 hours): 0.61; Rate of increase or decrease (first value, increase) ([2]; different from individual to individual, individuals with increase, relative to 1 at 15 minutes, collection to centrifugation, after 4 hours): 2.06

The next lines start with the molecule.

SMILES	Rate of increase or decrease ([2]; after 4 hours)	Increase or decrease ([2]; after 4 hours vs 15 minutes)	Rate of increase or decrease ([3]; after 1 hour)	Increase or decrease ([3]; after 1 hour vs 30 minutes)	Rate of increase or decrease ([3]; after 6 hours)	Increase or decrease ([3]; after 6 hours vs 30 minutes)	Rate of increase or decrease [1, 8]	Increase or decrease [1, 9]	Rate of increase or decrease ([2]; after 8 hours)	Increase or decrease ([2]; after 8 hours vs 15 minutes)	other results
O=C(O)c1ccccc1 [Benzoic acid]	1.30	Decrease	0.69	Decrease	–	–	–	–	–	–	Rate of increase or decrease [1, 4]: 3.86; Number of times when compound is affected ([1]; serum sample, GC/MS): 10 times; Increase or decrease [1, 5]: Increase
NCCCCN [Putrescine]	–	–	1.54	Increase	–	–	–	–	1.44	Increase	Rate of increase or decrease [1, 4]: 1.77; Number of times when compound is affected ([1]; serum sample, GC/MS): 10 times; Increase or decrease [1, 5]: Increase
O=C(O)CCc1c[nH]c2ccccc12 [3-Indolepropionic acid]	1.93	Increase	–	–	1.54	Increase	–	–	–	–	Increase or decrease [1, 7]: Different from individual; Rate of increase or decrease (second value, decrease) ([1]; different from individual to individual, individuals with decrease, relative to 1 at 2 times, serum, GC/MS, freezing and thawing 10 times): 0.67; Rate of increase or decrease (first value, increase) ([1]; different from individual to individual, individuals with increase, relative to 1 at 2 times, serum, GC/MS, freezing and thawing 10 times): 2.21
NCCCCCN [Cadaverine]	1.38	Increase	0.50	Decrease	–	–	–	–	–	–	Rate of increase or decrease [1, 10]: 2.31; Increase or decrease [1, 11]: Increase
NCCc1ccc(O)cc1 [Tyramine]	2.37	Increase	–	–	3.34	Increase	–	–	–	–	Rate of increase or decrease [1, 4]: 3.78; Number of times when compound is affected ([1]; serum sample, GC/MS): 10 times; Increase or decrease [1, 5]: Increase
O=C(O)CCCc1ccccc1 [Phenylbutyric acid]	–	–	1.75	Increase	–	–	2.61	Increase	–	–	Rate of increase or decrease ([2]; after 12 hours): 2.17; Increase or decrease ([2]; after 12 hours vs 15 minutes): Increase
O=c1cc[nH]c(=O)[nH]1 [Uracil]	1.38	Increase	–	–	4.84	Increase	–	–	–	–	Rate of increase or decrease [1, 10]: 1.54; Increase or decrease [1, 11]: Increase
CCCCCCC(N)C(=O)O (centres unmarked) [2-Aminooctanoic acid]	1.60	Increase	1.67	Increase	–	–	2.80	Increase	–	–	–
